Source: patent US20170202802A1, “COMPOSITIONS, KITS AND METHODS FOR NUTRITION SUPPLEMENTATION” (Exeltis USA, Inc., priority 2016, published 2017)

Assay: Double-blind, placebo controlled six-month study of nutritional status in pregnant and lactating women (Example 6)
Format: in vivo, human
Conditions: co-administration of docusate sodium with supplements
Description: A study is undertaken to evaluate the effectiveness of the compositions of the present invention in the treatment of patients. The objective of the study is to determine whether oral intake of the compositions results in an improvement of the nutritional status of patients with regard to the specific vitamins and minerals contained in the administered compositions.
A double-blind, placebo controlled study is conducted over a six-month period. A total of 120 subjects (60 pregnant women entering the second trimester of pregnancy and 60 lactating women), aged 20-35 years, are chosen for the study. An initial assessment of the nutritional status of each woman is conducted. Vitamin A and vitamin B6 are measured using high performance liquid chromatography. […] Vitamin B2 levels are determined by assessment of erythrocyte glutathione reductase activity. Vitamin B3 levels are assessed by measuring urinary excretion of N′-methylnicotinamide and its pyridone. Vitamin B9 is measured by radioimmunoassay (RIA), specifically. […] Vitamin B12 is measured by RIA using human intrinsic factor as a binder and also by measuring serum levels of vitamin B12. Vitamin C levels are measured by spectrophotometric and colorimetric methods and also by measuring serum levels of Vitamin C. Vitamin D is measured using an extraction double-antibody RIA (Dia Sorin, Inc., Stillwater, Minn.). […] Iodine levels are measured by HPLC. […]

CCCCC(CC)COC(=O)CC(C(=O)OCC(CC)CCCC)S(=O)(=O)[O-].[Na+] (stereo not shown) [docusate sodium]
constipation that can result from iron supplementation (frequency of normal bowel movements before and after receiving supplements): mitigates constipation
